The text below walks through data of article PMC4627230, “Identification of TAX2 peptide as a new unpredicted anti-cancer agent” (Oncotarget, 2015).

The test system of assay [1] is immobilized TSP-1 (thrombospondin from human platelets). Put plainly: ELISA binding of biotin-labeled peptides to immobilized TSP-1. The note with it: biotin-labeled peptide 10 μg/mL, 3 h, room temperature, 0.5% BSA; absorbance 450 nm; n = 3 in triplicate. As to the method: Microtiter plates (Nunc, ThermoFisher Scientific, Courtaboeuf, France) were coated overnight at 4°C with 0.5 μg TSP-1 in sodium carbonate-bicarbonate (BupH) buffer (Thermo Fisher Scientific). Plates were washed with PBS 0.1% BSA (Sigma-Aldrich) and non-specific sites were saturated during 30 min using 1% (w/v) BSA in BupH buffer. Biotin-labeled peptide (10 μg/mL, determined after dose-response assay from 0.01 to 100 μg/mL) was added in buffer containing 0.5% (w/v) BSA and incubated for 3 h at room temperature. Non-labeled peptide (0.001 to 5 mg/mL) was used as selective competitor. Plates were washed with PBS containing 0.1% (w/v) BSA and treated for 30 min with mouse anti-biotin antibody. Bound antibody was quantified using the mouse IgG Elite Vectastain ABC kit (Vector Laboratories) followed by incubation with 1-Step Turbo TMB substrate as a chromogen (ThermoFisher Scientific). The reaction was stopped with 0.5 M H2SO4 and absorbance was read at 450 nm.

The subject of assay [2] is CD47. As to conditions: ref [43]; cited from earlier work. An excerpt:
In addition to the putative effects that may be due to CD47 association with its co-receptors, TAX2-bound TSP-1 also remains able to bind a wide variety of ligands through the other domains of the multi-modular protein. Among these domains, a central region of TSP-1 called 3TSR (three TSP-1 type 1 repeats) binds to the CD36 membrane receptor, also leading to inhibition of angiogenesis. Indeed, CD36 ligation by TSP-1 is known to induce an anti-angiogenic response by promoting CD36 association with β1 integrin and VEGFR2 dimer in a tripartite complex, resulting in decreased VEGFR2 phosphorylatio ... || Figure 7 TAX2 induces a shift in TSP-1 binding from CD47 to CD36 A. In physiological conditions, most of TSP-1-related effects on vascular function are mediated by TSP-1 carboxy terminal domain interaction with CD47 receptor. B. Under TAX2 treatment preventing TSP-1:CD47 interaction, binding of the 3TSR module of TSP-1 to CD36 receptor is promoted, thus leading to an overall anti-angiogenic response (NTD, N-terminal domain; Col, procollagen-homology domain; CBD, carboxy terminal cell binding domain). TEXT PRINTED IN THE PICTURE: (A) TSP-1: CD36: 1-10 nM; CD47: 10-100 pM DOUBTS OF THE COPYIST A ...

As to “LSVDESKAQGIL [scrambled peptide, scrambled dodecapeptide used as a control (…), reference compound]”, the “binding to immobilized TSP-1” value in assay [1] is reported as “does not”.
Turning to “TSP-1: multimodular protein secreted as a disulfide-linked 450 kDa homotrimer”, in assay [2], the “binding affinity for CD47 compared to CD36” value is reported as “higher compared to CD36 binding”.
